We go through 3 compounds from US11066421B1, “Synthetic cinchona alkaloids against cancer” (Ares Pharmaceuticals, LLC, priority 2021, dated 2021).

The subject of one assay is NALM-6. As to the kind of experiment: MTT cytotoxicity assay, NALM-6. Type of assay: cell-based, human. The following applies: 48 h, read-out: IC50 against NALM-6. As for the experimental part:
(§1) Human B-lineage acute lymphoblastic leukemia (ALL) cell line NALM-6 and T-lineage ALL/lymphoma cell line MOLT-3 were obtained from American Type Culture Collection (Manassas, Va.). Cell lines were propagated in RPMI 1640 supplemented with 10% FCS, 4 mM glutamine, 100 units/ml penicillin G, and […] streptomycin sulfate. All tissue culture reagents were obtained from Life Technologies Inc. (Life Technologies, Inc., Gaithersburg, Md.). Cell lines were cultivated for a minimum of two passages after thawing prior to experimentation.
(§2) The cytotoxicity of the compounds were tested against human ALL cell lines using MTT assays (Roche Molecular Biochemicals, Indianapolis, Ind.), as described previously R. K. Narla et al., 1998, Clin Cancer Res 4:1405-14). Briefly, exponentially growing tumor cells were seeded into a 96-well plate at a density of 4×10^4 cells/well and incubated in medium containing the cinchona alkaloid compounds at concentrations ranging from 0.7 to 100 μM for 48 h at 37° C. in a humidified 5% CO2 atmosphere. To each well, 10 μL of MTT (final concentration, 0.5 mg/ml) was added, and the plates were incubated at 37° C. for 4 h to allow MTT to form formazan crystals by reacting with metabolically active cells. The formazan crystals were solubilized overnight at 37° C. in a solution containing 10% SDS and 0.01 M HCl. The absorbance of each well was measured in a microplate reader (Labsystems) at 540 nm and a reference wavelength of 690 nm. To translate the A540 values into the number of live cells in each well, the A540 values were compared to those on standard A540 versus cell number curves generated for each cell line. The percentage of survival was calculated using the formula: % survival=[Live cell number (test)/Live cell number (control)]×100. The IC50 values were calculated by nonlinear regression analysis using the graphed Prism Software version 2.0 (GraphPad Software, Inc., San Diego, Calif.).
In general terms: Tetrazolium dyes change colour on reduction, which living cells bring about.

A further assay concerns MOLT-3. The experiment in a line: MTT cytotoxicity assay, MOLT-3. The assay is classed as cell-based, human. The following applies: 48 h, read-out: IC50 against MOLT-3. On the procedure:
as §1, §2

Assay [1] has as its system Lewis Lung Carcinoma Cells (LL2). As to the kind of experiment: Syngeneic mouse model of K-Ras mutant NSCLC. The assay is classed as in vivo. As for the experimental part:
Lewis Lung Carcinoma Cells (LL2) were purchased from ATCC. These murine NSCLC cells derived from C57BL/6 mice have a heterozygous Kras^G12C mutation (H. Y. Li et al., 2017, Cancer Immunol. Res. 5:767-77; B. Deskin et al., 2020, Translational Oncol. 13:135-45). Eight-9 weeks old, male C57/BL6 mice were inoculated with 1×10^6 LL2 cells in 200 μL PBS that were injected subcutaneously in the right flank. Treatments were initiated immediately after inoculation with LL/2 cells. Control mice were treated with intraperitoneal injections of 50 μL vehicle (DMSO), whereas test mice were treated with either AP-1 or AP-8 at the specified dose levels. Treatments were administered twice daily, 5 days per week for a total of 2 weeks. The clinical predictive value of this mouse model is well established (Kellar A, Egan C, Morris D. Preclinical Murine Models for Lung Cancer: Clinical Trial Applications. Biomed Research International Volume 2015|Article ID 621324|https://doi.org/10.1155/2015/621324).
In the 1st experiment, mice were treated twice daily with intraperitoneal injections of vehicle (50 μL DMSO) (N=10) or AP-1 (125 μg˜5 mg/kg in 50 μL DMSO) (N=7) according to a 5 days on 2 days off weekly schedule for 4 weeks. Mice were monitored daily until tumors became visible on and tumor growth rates were compared between day 16 and day 20 by measuring the size of the tumors with a caliper in three dimensions. Tumor size was expressed as tumor volume in cubic millimeters (mm3). Tumor volumes were calculated using the formula for the volume of a prolate spheroid, V=4/3×3.14×length/2×width/2×depth/2. […] The depicted Whisker plots represent the median and values (Min to Max. Shown all points) for the tumor volume on day 16 (FIG. 11A), day 18 (FIG. 11 FIG. 11B) and day 20 (C), and fold-growth in 48 hours (FIG. 11D; day 18 size: day 16 size) measured in tumors from mice in each group. […] Statistical significance between the two groups is shown by the depicted p-values above the plots were computed using an independent samples T-test.
Similarly, in the 2nd experiment, C57BL/6 mice were inoculated subcutaneously with LL2 cells (1×10^6/inoculum, volume: 200 μL) in the right flank. Mice were treated twice daily with intraperitoneal injections of vehicle (50 μL DMSO) (N=10) or AP-1 (100 μg˜4 mg/kg in 50 μL DMSO) (N=20) according to a 5 days on 2 days off weekly schedule for 2 weeks. Mice were monitored daily until tumors became visible on day 10. Tumor growth was assessed on day 10 and day 14 by measuring the size of the tumors with a caliper in three dimensions. Tumor size was expressed as tumor volume in cubic millimeters (mm^3). Tumor volumes were calculated using the formula for the volume of a prolate spheroid, V=4/3×3.14×length/2×width/2×depth/2. […]
In the 3rd experiment, mice were treated twice daily with intraperitoneal injections of vehicle (50 μL DMSO) (N=10) or AP-1 (125 μg˜5 mg/kg in 50 μL DMSO) (N=18) according to a 5 days on 2 days off weekly schedule for 4 weeks. Mice were monitored daily until tumors became visible on day 13. Tumor growth was re-assessed every other day between day 13 and day 29 by measuring the size of the tumors with a caliper in three dimensions. Tumor size was expressed as tumor volume in cubic millimeters (mm^3). Tumor volumes were calculated using the formula for the volume of a prolate spheroid, V=4/3×3.14×length/2×width/2×depth/2. […]

As a reminder, the IC50 is the midpoint of a concentration-inhibition curve. As for “2,4,6-Tri (9-O-dihydrocinchoninyl)pyrimidine [AP-5]”, the IC50 with NALM-6 amounted to 1.7 µM.
`C=CC1CN2CCC1CC2C(Oc1cc(OC(c2ccnc3ccccc23)C2CC3CCN2CC3C=C)nc(OC(c2ccnc3ccccc23)C2CC3CCN2CC3C=C)n1)c1ccnc2ccccc12` (stereo not shown) [AP-1, 2,4,6-Tri(9-O-cinchoninyl)pyrimidine]: the IC50 worked out at 6.7 µM with MOLT-3 and 3.4 µM in the assay on NALM-6. The “fold-growth in 48 hours (day 18 size: day 16 size)” value in assay [1] (1st experiment, 5 mg/kg i.p. twice daily) was “significantly reduced the rapid growth rate of the LL2 tumors”. Besides, the “average tumor volume versus vehicle” value in assay [1] (1st experiment, 5 mg/kg i.p. twice daily, day 16 to day 20) was “remained significantly smaller than the average tumor volume in vehicle-treated control mice”; in assay [1] (2nd experiment, 4 mg/kg i.p. twice daily, day 10 and day 14), “remained significantly smaller than the average tumor volume in vehicle-treated control mice”; in assay [1] (3rd experiment, 5 mg/kg i.p. twice daily, day 13 to day 29) it was “remained significantly smaller than the average tumor volume in vehicle-treated control mice”.
For `CCC1CN2CCC1CC2C(Oc1cc(OC(c2ccnc3ccc(OC)cc23)C2CC3CCN2CC3CC)nc(OC(c2ccnc3ccc(OC)cc23)C2CC3CCN2CC3CC)n1)c1ccnc2ccc(OC)cc12` (stereo not shown) [AP-8, 2,4,6-Tri (9-O-dihydroquinidinyl)pyrimidine], the half-inhibitory concentration (IC50) in the assay on MOLT-3 worked out at 5.2 µM; with NALM-6, 3.7 µM. Further, the “average tumor volume versus vehicle” value in assay [1] (2 mg/kg i.p. twice daily, day 14 to day 25) is “remained significantly smaller than the average tumor volume in vehicle-treated control mice”.
